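Assay format: 96-well plates, 48-hour exposure. GI50 is the concentration that inhibits growth by half. TGI denotes the concentration required for complete inhibition of growth.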
Experiments:
Assay in all cases: NCI-60 cell line screen, 48 h
SK-MEL-5 melanoma = test system: SK-MEL-5 melanoma
EKVX NSCLC = test system: EKVX NSCLC
SK-MEL-2 melanoma = test system: SK-MEL-2 melanoma
HOP-92 NSCLC = test system: HOP-92 NSCLC
NCI-H226 lung = test system: NCI-H226 lung
HL-60(TB) leukemia = test system: HL-60(TB) leukemia
MALME-3M melanoma = test system: MALME-3M melanoma
MDA-MB-435 = test system: MDA-MB-435
UACC-62 melanoma = test system: UACC-62 melanoma
DU-145 prostate = test system: DU-145 prostate
NCI-H460 lung = test system: NCI-H460 lung
SF-268 CNS = test system: SF-268 CNS
CCRF-CEM leukemia = test system: CCRF-CEM leukemia
OVCAR-5 ovarian = test system: OVCAR-5 ovarian
NCI-H23 lung = test system: NCI-H23 lung
PC-3 prostate = test system: PC-3 prostate
LOX IMVI melanoma = test system: LOX IMVI melanoma
OVCAR-3 ovarian = test system: OVCAR-3 ovarian
SF-295 CNS = test system: SF-295 CNS
A549 NSCLC = test system: A549 NSCLC
IGROV1 ovarian = test system: IGROV1 ovarian
K-562 leukemia = test system: K-562 leukemia
RXF 393 renal = test system: RXF 393 renal
COLO 205 colon = test system: COLO 205 colon
UACC-257 melanoma = test system: UACC-257 melanoma
TK-10 renal = test system: TK-10 renal
SR leukemia = test system: SR leukemia
MCF7 breast = test system: MCF7 breast
OVCAR-4 ovarian = test system: OVCAR-4 ovarian
SF-539 CNS = test system: SF-539 CNS
BT-549 breast = test system: BT-549 breast
SW-620 colon = test system: SW-620 colon
U251 CNS = test system: U251 CNS
HS 578T breast = test system: HS 578T breast
HOP-62 NSCLC = test system: HOP-62 NSCLC
NCI-H522 lung = test system: NCI-H522 lung
HCT-116 colon = test system: HCT-116 colon
NCI/ADR-RES ovarian = test system: NCI/ADR-RES ovarian
HCT-15 colon = test system: HCT-15 colon
SK-MEL-28 melanoma = test system: SK-MEL-28 melanoma
MOLT-4 leukemia = test system: MOLT-4 leukemia
ACHN renal = test system: ACHN renal
OVCAR-8 ovarian = test system: OVCAR-8 ovarian
786-0 renal = test system: 786-0 renal
HCC-2998 colon = test system: HCC-2998 colon
UO-31 renal = test system: UO-31 renal
CAKI-1 renal = test system: CAKI-1 renal
MDA-MB-231 breast = test system: MDA-MB-231 breast
M14 melanoma = test system: M14 melanoma
SK-OV-3 ovarian = test system: SK-OV-3 ovarian
SN12C renal = test system: SN12C renal
SNB-75 CNS = test system: SNB-75 CNS
HT29 colon = test system: HT29 colon
SNB-19 CNS = test system: SNB-19 CNS
A498 renal = test system: A498 renal
RPMI-8226 leukemia = test system: RPMI-8226 leukemia
T-47D breast = test system: T-47D breast
KM12 colon = test system: KM12 colon

c1ccc2c(c1)Sc1ccccc1N2CC1CN2CCC1CC2 (stereo not drawn)
TGI (SK-MEL-5 melanoma): 7.63 µM | TGI (EKVX NSCLC): 24.3 µM | TGI (SK-MEL-2 melanoma): 9.52 µM | TGI (HOP-92 NSCLC): 25.2 µM | TGI (NCI-H226 lung): 30.2 µM | TGI (HL-60(TB) leukemia): 20.3 µM | TGI (MALME-3M melanoma): 3.91 µM | TGI (MDA-MB-435): 8.7 µM | TGI (UACC-62 melanoma): 10.5 µM | TGI (DU-145 prostate): 19.4 µM | TGI (NCI-H460 lung): 11.3 µM | TGI (SF-268 CNS): 20.9 µM | TGI (CCRF-CEM leukemia): 14.3 µM | TGI (OVCAR-5 ovarian): 24.5 µM | TGI (NCI-H23 lung): 26.1 µM | TGI (PC-3 prostate): 17.2 µM | TGI (LOX IMVI melanoma): 11.5 µM | TGI (OVCAR-3 ovarian): 11.9 µM | TGI (SF-295 CNS): 29.1 µM | TGI (A549 NSCLC): 22.8 µM | TGI (IGROV1 ovarian): 23.2 µM | TGI (K-562 leukemia): 4.72 µM | TGI (RXF 393 renal): 10.2 µM | TGI (COLO 205 colon): 3.12 µM | TGI (UACC-257 melanoma): 3.48 µM | TGI (TK-10 renal): 19.3 µM | TGI (SR leukemia): 7.83 µM | TGI (MCF7 breast): 11.2 µM | TGI (OVCAR-4 ovarian): 20.8 µM | TGI (SF-539 CNS): 21.8 µM | TGI (BT-549 breast): 27.8 µM | TGI (SW-620 colon): 13.5 µM | TGI (U251 CNS): 14.5 µM | TGI (HS 578T breast): 26 µM | TGI (HOP-62 NSCLC): 27 µM | TGI (NCI-H522 lung): 16.5 µM | TGI (HCT-116 colon): 12.8 µM | TGI (NCI/ADR-RES ovarian): 24.5 µM | TGI (HCT-15 colon): 19.6 µM | TGI (SK-MEL-28 melanoma): 4.32 µM | TGI (MOLT-4 leukemia): 16.5 µM | TGI (ACHN renal): 22.2 µM | TGI (OVCAR-8 ovarian): 27.2 µM | TGI (786-0 renal): 19.1 µM | TGI (HCC-2998 colon): 2.6 µM | TGI (UO-31 renal): 19.4 µM | TGI (CAKI-1 renal): 21 µM | TGI (MDA-MB-231 breast): 15 µM | TGI (M14 melanoma): 3.36 µM | TGI (SK-OV-3 ovarian): 26 µM | TGI (SN12C renal): 23.7 µM | TGI (SNB-75 CNS): 9.56 µM | TGI (HT29 colon): 11.2 µM | TGI (SNB-19 CNS): 22.6 µM | TGI (A498 renal): 24.7 µM | TGI (RPMI-8226 leukemia): 9.99 µM | TGI (T-47D breast): 8.65 µM | TGI (KM12 colon): 17.5 µM

COc1cc2c3c(n(CCCNCCCNCCCn4c5c(c6cc(OC)c(OC)cc6c4=O)C(=O)c4ccccc4-5)c(=O)c2cc1OC)-c1ccccc1C3=O
GI50 (SK-MEL-5 melanoma): 68.2 µM | TGI (SK-MEL-5 melanoma): > 100 µM | GI50 (EKVX NSCLC): > 100 µM | TGI (EKVX NSCLC): > 100 µM | GI50 (SK-MEL-2 melanoma): 40.3 µM | TGI (SK-MEL-2 melanoma): > 100 µM | GI50 (HOP-92 NSCLC): 1.74 µM | TGI (HOP-92 NSCLC): 8.62 µM | GI50 (NCI-H226 lung): 7.89 µM | TGI (NCI-H226 lung): > 52.2 µM | GI50 (HL-60(TB) leukemia): 1.11 µM | TGI (HL-60(TB) leukemia): 12.6 µM | GI50 (MALME-3M melanoma): 25.7 µM | TGI (MALME-3M melanoma): > 91.7 µM | GI50 (MDA-MB-435): 12.9 µM | TGI (MDA-MB-435): > 59.1 µM | GI50 (UACC-62 melanoma): 8.75 µM | TGI (UACC-62 melanoma): 38.9 µM | GI50 (DU-145 prostate): > 44.3 µM | TGI (DU-145 prostate): > 100 µM | GI50 (NCI-H460 lung): 6.23 µM | TGI (NCI-H460 lung): > 100 µM | GI50 (SF-268 CNS): 6.61 µM | TGI (SF-268 CNS): > 100 µM | GI50 (CCRF-CEM leukemia): 0.491 µM | TGI (CCRF-CEM leukemia): 12.7 µM | GI50 (OVCAR-5 ovarian): 20 µM | TGI (OVCAR-5 ovarian): > 100 µM | GI50 (NCI-H23 lung): > 100 µM | TGI (NCI-H23 lung): > 100 µM | GI50 (PC-3 prostate): 4.04 µM | TGI (PC-3 prostate): > 60 µM | GI50 (LOX IMVI melanoma): 1.31 µM | TGI (LOX IMVI melanoma): 13.9 µM | GI50 (OVCAR-3 ovarian): 12.6 µM | TGI (OVCAR-3 ovarian): 31.5 µM | GI50 (SF-295 CNS): 5.03 µM | TGI (SF-295 CNS): 18.4 µM | GI50 (A549 NSCLC): 12.7 µM | TGI (A549 NSCLC): > 100 µM | GI50 (IGROV1 ovarian): 1.33 µM | TGI (IGROV1 ovarian): > 55.6 µM | GI50 (K-562 leukemia): 3.39 µM | TGI (K-562 leukemia): 45.4 µM | GI50 (RXF 393 renal): > 47.8 µM | TGI (RXF 393 renal): > 92.2 µM | GI50 (COLO 205 colon): 7.24 µM | TGI (COLO 205 colon): > 61.9 µM | GI50 (UACC-257 melanoma): > 100 µM | TGI (UACC-257 melanoma): > 100 µM | GI50 (TK-10 renal): 40.2 µM | TGI (TK-10 renal): > 100 µM | GI50 (SR leukemia): 0.225 µM | TGI (SR leukemia): 22.2 µM | GI50 (MCF7 breast): 1.51 µM | TGI (MCF7 breast): > 53.2 µM | GI50 (OVCAR-4 ovarian): > 100 µM | TGI (OVCAR-4 ovarian): > 100 µM | GI50 (SF-539 CNS): 9.17 µM | TGI (SF-539 CNS): 45.4 µM | GI50 (BT-549 breast): 58.2 µM | TGI (BT-549 breast): > 100 µM | GI50 (SW-620 colon): 7.51 µM | TGI (SW-620 colon): > 100 µM | GI50 (U251 CNS): 2.49 µM | TGI (U251 CNS): 17.4 µM | GI50 (HS 578T breast): > 50.7 µM | TGI (HS 578T breast): > 100 µM | GI50 (HOP-62 NSCLC): 6.59 µM | TGI (HOP-62 NSCLC): 47 µM | GI50 (NCI-H522 lung): 1.54 µM | TGI (NCI-H522 lung): 38.7 µM | GI50 (HCT-116 colon): 1.27 µM | TGI (HCT-116 colon): 17.6 µM | GI50 (NCI/ADR-RES ovarian): > 100 µM | TGI (NCI/ADR-RES ovarian): > 100 µM | GI50 (HCT-15 colon): > 84.5 µM | TGI (HCT-15 colon): > 100 µM | GI50 (SK-MEL-28 melanoma): > 52.5 µM | TGI (SK-MEL-28 melanoma): > 82.4 µM | GI50 (MOLT-4 leukemia): 2.65 µM | TGI (MOLT-4 leukemia): 9.8 µM | GI50 (ACHN renal): 24.2 µM | TGI (ACHN renal): > 100 µM | GI50 (OVCAR-8 ovarian): 2.87 µM | TGI (OVCAR-8 ovarian): > 100 µM | TGI (786-0 renal): > 46.4 µM | GI50 (HCC-2998 colon): 2.13 µM | TGI (HCC-2998 colon): 30.3 µM | GI50 (UO-31 renal): > 100 µM | TGI (UO-31 renal): > 100 µM | GI50 (CAKI-1 renal): > 100 µM | TGI (CAKI-1 renal): > 100 µM | GI50 (MDA-MB-231 breast): 2 µM | TGI (MDA-MB-231 breast): 20.1 µM | GI50 (M14 melanoma): 22.6 µM | TGI (M14 melanoma): > 58.9 µM | GI50 (SK-OV-3 ovarian): > 100 µM | TGI (SK-OV-3 ovarian): > 100 µM | GI50 (SN12C renal): 0.706 µM | TGI (SN12C renal): > 51.6 µM | GI50 (SNB-75 CNS): 25 µM | TGI (SNB-75 CNS): 62.1 µM | GI50 (HT29 colon): 2.15 µM | TGI (HT29 colon): > 100 µM | GI50 (SNB-19 CNS): 6.91 µM | TGI (SNB-19 CNS): > 47.8 µM | GI50 (A498 renal): 25.2 µM | TGI (A498 renal): 59.8 µM | GI50 (RPMI-8226 leukemia): 0.487 µM | TGI (RPMI-8226 leukemia): 6.62 µM | GI50 (T-47D breast): > 24.8 µM | TGI (T-47D breast): > 100 µM | GI50 (KM12 colon): 4.77 µM | TGI (KM12 colon): > 84.9 µM
